Data as given in ChEMBL document CHEMBL5370611, “Discovery of 4,5,6,7-Tetrahydropyrazolo[1.5-a]pyrizine Derivatives as Core Protein Allosteric Modulators (CpAMs) for the Inhibition of Hepatitis B Virus” (J Med Chem, 2023).
The source made the active and inactive calls. The rule behind the calls is not given here.

Tests used:
[1] = AUC (0 to infinity) in C57BL/6 mouse liver at 3 mg/kg, po administered as single dose measured upto 24 hrs by LC-MS/MS analysis; format: ADME, organism-based; set-up: dose 3 mg/kg, time < 24 hrs, route po
[2] = Cytotoxicity against human HepDE19 cells assessed as reduction in cell viability measured after 5 days by CCK-8 method; format: functional; conditions: HepDE19, 120 h, time 5 day
[3] = Metabolic stability in mouse liver microsomes assessed as clearance at 1 uM preincubated for 10 mins and measured upto 30 mins in presence of NADPH generating system by LC-MS/MS analysis; format: ADME, Microsome; conditions: time < 40 min
[4] = Metabolic stability in human liver microsomes assessed as clearance at 1 uM preincubated for 10 mins and measured upto 30 mins in presence of NADPH generating system by LC-MS/MS analysis; format: ADME, Microsome; conditions: time < 40 min
[5] = Volume of distribution at steady state in C57BL/6 mouse plasma at 1 mg/kg, iv administered as single dose measured upto 24 hrs by LC-MS/MS analysis; format: ADME, organism-based; conditions: read-out: Vdss
[6] = AUC (0 to infinity) in C57BL/6 mouse plasma at 3 mg/kg, po administered as single dose measured upto 24 hrs by LC-MS/MS analysis; format: ADME, organism-based; set-up: time < 24 hrs, dose 3 mg/kg, route po
[7] = Selectivity index, ratio of CC50 for human HepDE19 cells assessed as reduction in cell viability to EC50 for HBV infected in human HepG2.2.15 cells assessed as reduction in HBV DNA replication; format: toxicity, cell-based; conditions: HBV-infected HepG2.2.15 cells (EC50)
[8] = Ratio of AUC (0 to infinity) in liver to plasma of C57BL/6 mouse liver at 3 mg/kg, po administered as single dose measured upto 24 hrs by LC-MS/MS analysis; format: ADME, organism-based; conditions: read-out: Ratio AUC
[9] = Half life in C57BL/6 mouse plasma at 1 mg/kg, iv administered as single dose measured upto 24 hrs by LC-MS/MS analysis; format: ADME, organism-based
Hepatitis B virus [10] = assay: Antiviral activity against HBV infected in human HepG2.2.15 cells assessed as reduction in HBV DNA replication measured after 5 days by qPCR analysis; format: functional, organism-based; conditions: HepG2.2.15, 120 h
[11] = Cmax in C57BL/6 mouse plasma at 3 mg/kg, po administered as single dose measured upto 24 hrs by LC-MS/MS analysis; format: ADME, organism-based; set-up: time < 24 hrs, dose 3 mg/kg, route po
[12] = Oral bioavailability in C57BL/6 mouse plasma at 3 mg/kg administered as single dose measured upto 24 hrs by LC-MS/MS analysis; format: ADME, organism-based
[13] = AUC (0 to infinity) in C57BL/6 mouse plasma at 1 mg/kg, iv administered as single dose measured upto 24 hrs by LC-MS/MS analysis; format: ADME, organism-based; set-up: dose 1 mg/kg, time < 24 hrs, route iv
[14] = Clearance in C57BL/6 mouse plasma at 1 mg/kg, iv administered as single dose measured upto 24 hrs by LC-MS/MS analysis; format: ADME, organism-based
[15] = Lyophilization solubility of the compound in phosphate buffer at pH 6.5 incubated for 1 hr under stirring condition and 2 hrs under shaking condition by HPLC-UV analysis; format: physicochemical
Hepatitis B virus [16] = assay: Inhibition of HBV Cp150 dimer assembly assessed as formation of large abnormal particles at 20 uM incubated for 2 hrs by transmission electron microscopy
[17] = Resistance index, ratio of EC50 for wild type Hepatitis B virus to EC50 for Hepatitis B virus harboring A181T/N236T transfected in human HepG2 cells measured after 6 days by qPCR analysis; format: functional; conditions: time 6 day
[18] = Resistance index, ratio of EC50 for wild type Hepatitis B virus to EC50 for Hepatitis B virus harboring M204 V transfected in human HepG2 cells measured after 6 days by qPCR analysis; format: functional; conditions: time 6 day
[19] = Resistance index, ratio of EC50 for wild type Hepatitis B virus to EC50 for Hepatitis B virus harboring L180M/M204V transfected in human HepG2 cells measured after 6 days by qPCR analysis; format: functional; conditions: time 6 day
[20] = Resistance index, ratio of EC50 for wild type Hepatitis B virus to EC50 for Hepatitis B virus harboring A181V/N236T transfected in human HepG2 cells measured after 6 days by qPCR analysis; format: functional; conditions: time 6 day

Structure (SMILES) | AUC(0-inf) [1] | CC50 [2] | CLhep predicted at 1 µM [3] | CLhep predicted at 1 µM [4] | Vd [5] | AUC(0-inf) [6] | selectivity ratio [7] | Kp at 24 h [8] | half-life [9] | EC50 (Hepatitis B virus [10]) | Cmax [11] | bioavailability [12] | AUC(0-inf) [13] | clearance [14] | solubility at 3 h [15] | Activity (Hepatitis B virus [16]) | Ratio EC50 [17] | Ratio EC50 [18] | Ratio EC50 [19] | Ratio EC50 [20]
O=C(Nc1ccc(F)cc1)N1CCn2ncc(-c3ccc(F)cc3)c2C1 | 5110 ng·h/mL | 55 µM | 56 mL/min/kg | 14 mL/min/kg | 2.1 L/kg | 276 ng·h/mL | 443 | 18.5 | 21.6 min | 0.124 µM | 407 ng/mL | 44% | 208 ng·h/mL | 146 mL/min/kg | < 1 µg/mL | – | – | – | – | –
O=C(Nc1ccc(Cl)c(F)c1)N1CCn2ncc(-c3ccc(F)cc3)c2C1 | – | 31 µM | 60 mL/min/kg | 15 mL/min/kg | – | – | 443 | – | – | 0.07 µM | – | – | – | – | – | inactive | – | – | – | –
Nc1ccn([C@@H]2CS[C@H](CO)O2)c(=O)n1 [LAMIVUDINE] | – | – | – | – | – | – | – | – | – | – | – | – | – | – | – | – | 29 | 19 | >225 | 5.8
